In ChEMBL document CHEMBL3217517, “Alkynylation of N-(3-iodopyridin-2-yl)sulfonamide under Pd/CCu catalysis: a direct one pot synthesis of 7-azaindoles and their pharmacological evaluation as potential inhibitors of sirtuins” (Medchemcomm, 2011):

Tests used:
[1] = biological target: NAD-dependent histone deacetylase SIR2 (Saccharomyces cerevisiae S288c) (UniProt P06700); experiment: Inhibition of Ura3 gene expressing yeast NAD-dependent HDAC activity of Sir2 assessed as growth inhibition at 50 uM after 24 to 48 hrs by reporter silencing assay in presence of 5-fluoro orotic acid
[2] = biological target: NAD-dependent histone deacetylase SIR2 (Saccharomyces cerevisiae S288c, UniProt P06700); experiment: Inhibition of Ura3 gene expressing yeast NAD-dependent HDAC activity of Sir2 assessed as growth inhibition after 24 to 48 hrs by reporter silencing assay in absence of 5-fluoro orotic acid
[3] = biological target: NAD-dependent histone deacetylase SIR2 (Saccharomyces cerevisiae S288c) (UniProt P06700); experiment: Inhibition of Ura3 gene expressing yeast NAD-dependent HDAC activity of Sir2 assessed as growth inhibition after 24 to 48 hrs by reporter silencing assay in presence of 5-fluoro orotic acid

Chain of NAD-dependent histone deacetylase SIR2 (P06700 whole entry): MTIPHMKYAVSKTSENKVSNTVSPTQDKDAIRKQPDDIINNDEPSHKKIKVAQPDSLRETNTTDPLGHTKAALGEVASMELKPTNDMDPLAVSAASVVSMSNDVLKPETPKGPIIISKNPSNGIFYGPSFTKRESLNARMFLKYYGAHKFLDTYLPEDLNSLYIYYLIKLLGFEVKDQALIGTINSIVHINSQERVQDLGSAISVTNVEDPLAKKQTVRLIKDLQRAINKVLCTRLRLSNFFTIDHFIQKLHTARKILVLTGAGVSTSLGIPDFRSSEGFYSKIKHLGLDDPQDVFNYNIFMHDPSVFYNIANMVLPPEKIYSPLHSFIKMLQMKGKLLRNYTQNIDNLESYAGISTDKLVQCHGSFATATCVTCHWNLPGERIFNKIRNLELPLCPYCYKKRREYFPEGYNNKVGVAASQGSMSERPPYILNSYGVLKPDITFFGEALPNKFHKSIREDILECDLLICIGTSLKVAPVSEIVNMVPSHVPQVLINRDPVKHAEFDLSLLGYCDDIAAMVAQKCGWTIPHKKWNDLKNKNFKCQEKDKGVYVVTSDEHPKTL
Chain of NAD-dependent histone deacetylase SIR2 (Saccharomyces cerevisiae S288c) (P06700 whole entry): as above

inhibition [1] [%] | inhibition [3] | SMILES | Activity [2]
37 |  | O=S(=O)(c1ccccc1)n1c(-c2ccccc2)cc2cccnc21 | 
15 |  | O=S(=O)(c1ccccc1)n1c(CCO)cc2cccnc21 | 
30 |  | CC(O)c1cc2cccnc2n1S(=O)(=O)c1ccccc1 (configuration not stated) | 
40 | Dose-dependent effect | CS(=O)(=O)n1c(-c2ccccc2)cc2cccnc21 | Non-toxic

Further lines, the molecule ahead of its results:

SMILES | inhibition [1] [%] | inhibition [3] | Activity [2]
N#CCCCc1cc2cccnc2n1S(=O)(=O)c1ccccc1 | 10 |  | 
CCCCCc1cc2cccnc2n1S(=O)(=O)c1ccccc1 | 10 |  | 
CC(C)(C)c1cc2cccnc2n1S(=O)(=O)c1ccccc1 | 42 |  | Non-toxic
O=S(=O)(c1ccccc1)n1c(CO)cc2cccnc21 |  |  | Non-toxic
O=S(=O)(c1ccccc1)n1c(CCCCl)cc2cccnc21 | 12 |  | 
